Measurements published in article PMC7687371, “Quantitative in Vitro to in Vivo Extrapolation (QIVIVE) for Predicting Reduced Anogenital Distance Produced by Anti-Androgenic Pesticides in a Rodent Model for Male Reproductive Disorders” (Environmental Health Perspectives, 2020).
pIC50: −log10 of the molar value. Read-outs that look alike come from different tables or passages of the source.

Legend:
[1] = biological target: T1, androgen receptor (AR) (Homo sapiens, UniProt P10275); set-up: method as in Orton et al. (2011); details: ref Orton et al. (2011), cited from earlier work
T1 construct: host or cells: AR-EcoScreen cells
T1 sequence (P10275 1-920): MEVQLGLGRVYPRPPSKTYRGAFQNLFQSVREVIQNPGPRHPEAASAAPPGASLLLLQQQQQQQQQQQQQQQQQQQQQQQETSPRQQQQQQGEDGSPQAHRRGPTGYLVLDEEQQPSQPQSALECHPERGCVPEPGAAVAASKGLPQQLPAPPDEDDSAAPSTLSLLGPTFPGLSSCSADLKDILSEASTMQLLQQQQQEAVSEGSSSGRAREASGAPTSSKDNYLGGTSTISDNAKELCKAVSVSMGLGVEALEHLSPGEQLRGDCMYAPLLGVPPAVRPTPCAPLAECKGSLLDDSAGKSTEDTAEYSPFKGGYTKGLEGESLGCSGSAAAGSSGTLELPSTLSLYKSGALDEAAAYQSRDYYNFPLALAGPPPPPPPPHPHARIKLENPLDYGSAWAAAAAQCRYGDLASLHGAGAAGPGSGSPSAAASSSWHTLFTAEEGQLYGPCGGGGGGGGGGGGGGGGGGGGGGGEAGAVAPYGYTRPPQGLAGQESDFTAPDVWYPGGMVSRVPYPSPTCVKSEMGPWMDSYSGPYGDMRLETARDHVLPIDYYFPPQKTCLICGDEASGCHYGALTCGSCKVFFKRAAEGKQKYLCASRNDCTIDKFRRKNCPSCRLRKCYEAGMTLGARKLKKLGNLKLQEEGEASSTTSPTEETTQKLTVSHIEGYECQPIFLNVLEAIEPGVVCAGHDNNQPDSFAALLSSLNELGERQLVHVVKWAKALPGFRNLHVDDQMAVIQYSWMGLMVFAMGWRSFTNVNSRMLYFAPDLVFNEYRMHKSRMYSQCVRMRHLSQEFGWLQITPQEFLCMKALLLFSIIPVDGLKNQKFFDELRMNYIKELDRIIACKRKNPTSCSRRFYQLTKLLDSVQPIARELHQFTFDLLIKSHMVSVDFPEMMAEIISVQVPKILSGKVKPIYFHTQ

[2] = tested on: Wistar rats; details: rat, in vivo
[3] = PBK model simulation of fetal and maternal concentrations; set-up: species or system rat
[4] = tested on: Sprague-Dawley rats; details: male, rat, in vivo
[5] = tested on: Sprague-Dawley rats; assay: In vivo Study 4 (dimethomorph follow-up), reproductive/developmental toxicity, AGD
[6] = tested on: NCI-H295R cells; assay: Cell viability (MTT) in the H295R assay; format: cell-based, human; details: human, 48 h
Method: To capture effects on steroid hormone synthesis (testosterone and androstendione), we tested all 12 pesticides in the H295R assay with the human adrenocortical carcinoma cell line NCI-H295R (American Type Culture Collection no. CRL-2,128, LGC Standards), as previously described ([Hecker et al. 2011]; [Rosenmai et al. 2013]). In brief, cells were cultured in DMEM/F-12 +glutamine medium with HEPES buffer (Invitrogen) containing 1% insulin-transferrin-sodium selenite plus Premix (VWR) and 2.5% Nu-Serum (BD Bioscience) at 37°C in a 5% CO2 atmosphere. The day before exposure, cells were seeded 300,000 per well in clear 24-well plates (VWR Corning). Cells were exposed for 48 h to control (Forskolin: 1μM , 10μM (Sigma-Aldrich); and Prochloraz: 0.3μM , 3μM (VWR-Bie and Berntsen) or test compounds. The vehicle (DMSO) concentration was kept constant in all wells (0.1%). After 48 h, the exposure culture medium was removed and stored at –80°C until the levels of 10 steroid hormones (testosterone, androstenedione, aldosterone, corticosterone, cortisol, dehydroepiandrosterone, 17α-hydroxyprogesterone , progesterone, estrone, and 17β-estradiol ) were quantified using the high-performance liquid chromatography–tandem mass spectrometry method described elsewhere ([Mortensen and Pedersen 2007]). Minor modifications were made to accommodate a smaller sample size and to include more hormones. […]

[7] = tested on: Wistar rats; details: rat, in vivo; cited from earlier work

COc1ccc(C(=CC(=O)N2CCOCC2)c2ccc(Cl)cc2)cc1OC [Dimethomorph, dimethomorph]
pIC50 ([1]; read-out: AR antagonism (IC50), MDA-kb2 cells): 6.05 | IC20 ([1]; read-out: AR antagonism (IC20 µM)): 300 nM | Shortening of AGDI compared with male controls (normalized AGDI scale) ([2]; male, Wistar (HanTac:WH)): around 10% | AGDI mean ([2]; male, Wistar, 20 mg/kg): 2.01 | AGDI reduction (%) ([2]; male, Wistar, 20 mg/kg/day): 13% | AGDI mean ([2]; male, Wistar, 60 mg/kg): 2.16 | Nipple retention at PD14, statistics in words [2]: no statistically significant effects on nipple retention | Ratio between observation and prediction (fetal and dams' plasma concentrations) ([3]; GD21 measurements vs PBK simulations): 0.5 to 2 | Predicted maternal plasma level relative to analytically determined concentration ([3]; dams, GD21): approximately one-tenth | AGDI mean ([4]; 20 mg/kg): 1.95 | AGDI mean ([4]; 60 mg/kg): 1.88 | AGDI mean ([4]; 180 mg/kg): 1.91 | % perinatal loss ([5]; 20 mg/kg/bw): 3.5 ± 6.3% | % postimplantation loss ([5]; 20 mg/kg/bw): 2.6 ± 4.9% | % postnatal deaths ([5]; 20 mg/kg/bw): 1.6 ± 3.7% | AGD females (mm) ([5]; 20 mg/kg/bw): 2.0 ± 0.1 mm | AGD females (units) ([5]; 20 mg/kg/bw): 12.4 ± 0.8 units | AGD index females ([5]; 20 mg/kg/bw): 1.1 ± 0.1 | AGD index males ([5]; 20 mg/kg/bw): 1.94 ± 0.1 | AGD males (mm) ([5]; 20 mg/kg/bw): 3.74 ± 0.2 mm | % perinatal loss ([5]; 60 mg/kg/bw): 5.7 ± 6.0% | % postimplantation loss ([5]; 60 mg/kg/bw): 4.3 ± 5.2% | % postnatal deaths ([5]; 60 mg/kg/bw): 1.4 ± 3.1% | AGD females (mm) ([5]; 60 mg/kg/bw): 1.9 ± 0.1 mm | AGD females (units) ([5]; 60 mg/kg/bw): 11.8 ± 0.6 units | AGD index females ([5]; 60 mg/kg/bw): 1.0 ± 0.0 | AGD index males ([5]; 60 mg/kg/bw): 1.87 ± 0.1 | AGD males (mm) ([5]; 60 mg/kg/bw): 3.51 ± 0.2 mm | Maternal toxicity ([5]; 180 mg/kg per day, increased postimplantation and perinatal loss, higher postnatal death rate): indications for a mild maternal toxicity | % perinatal loss ([5]; 180 mg/kg/bw): 13.3 ± 11.8% | % postimplantation loss ([5]; 180 mg/kg/bw): 10.1 ± 12.6% | % postnatal deaths ([5]; 180 mg/kg/bw): 3.2 ± 7.2% | AGD females (mm) ([5]; 180 mg/kg/bw): 2.0 ± 0.2 mm | AGD females (units) ([5]; 180 mg/kg/bw): 12.1 ± 0.9 units | AGD index females ([5]; 180 mg/kg/bw): 1.1 ± 0.0 | AGD index males ([5]; 180 mg/kg/bw): 1.90 ± 0.11 | AGD males (mm) ([5]; 180 mg/kg/bw): 3.57 ± 0.2 mm

N#Cc1c[nH]cc1-c1cccc2c1OC(F)(F)O2 [Fludioxonil, fludioxonil]
Cytotoxicity in H295R assay, concentrations [6]: > 12.5 µM

CC12CC1(C)C(=O)N(c1cc(Cl)cc(Cl)c1)C2=O (stereo not drawn) [Procymidone, procymidone, reference compound]
AGDI ED50 [7]: 69.4 mg/kg BW
